In US20130217579A1, “Pesticide Preparations Containing N-Substituted 2-Pyrrolidone-4-Carboxylic Acid Esters” (CLARIANT FINANCE (BVI) LIMITED, priority 2010, published 2013):

Assay: Solubilities of pesticides in compounds of formula (1)
Format: physicochemical
Description: The solubilities of various pesticides were determined in various compounds of formula (1) at 25° C. All data are in % by weight (Table 1).

With `CCCCOC(=O)C1CC(=O)N(C)C1` (centres unmarked) [Example 3, N-butyl N-methyl-2-pyrrolidone-4-carboxylate] the “Solubility of Pendimethalin in compound of formula (1)” value was 38.9 % by weight, the “Solubility of Tebuconazole in compound of formula (1)” value was 37.0 % by weight and the “Solubility of Triadimefon in compound of formula (1)” value was 43.0 % by weight. The “Solubility of Trifloxystrobin in compound of formula (1)” value was 30.1 % by weight and the “Solubility of Trifluralin in compound of formula (1)” value was 57.4 % by weight.
